Consider 4 compounds from patent US4461900A, “4,5-Dihydrothiadiazole 1,1-dioxide derivatives” (American Home Products Corporation, priority 1983, dated 1984).

Assay [1] concerns H2 receptor. The following applies: cited from earlier work.
Assay [2] concerns histamine induced gastric acid secretion. The conditions noted are these: dog; cited from earlier work.
The target of assay [3] is T1, H2 -receptor (Cavia porcellus, UniProt P47747).
T1 construct: The right atria of Males Charles River guinea-pigs; from tissue; host or cells: isolated right atria of male Charles River guinea-pigs
The assay is described as follows: In vitro H2 antagonism: histamine-induced heart rate increase in isolated guinea-pig right atria. It counts as cell-based. The conditions noted are these: at 10^-4, 10^-5 M.
Description: The right atria of Males Charles River guinea-pigs (250-325 gm), trimmed of extraneous tissues is suspended in a bath at a 1.0 g tension load between an anchor and a Grass Model FT03 force displacement transducer which is coupled to a Beckman Dynograph recorder. The Krebs-Henseleit bath is oxygenated (95% O2 -5% CO2) and maintained at 32° C. After establishing a regular pattern of spontaneous activity over one hour, cumulative doses of histamine are introduced into the bath and the maximal heart rate increase recorded after each addition to establish a response control.
Then the tissue is washed, returned to rest rates and the compound being treated is introduced into the bath. Thirty minutes later the histamine dose-response study is repeated. The response to histamine in the presence of an antagonist differs from that obtained in the absence of antagonist and the log of the ratio of differences is platted against the log concentration of antagonist for each of several concentrations from which the apparent dissociation constant (pA2) is calculated.

T1 sequence (P47747 whole entry): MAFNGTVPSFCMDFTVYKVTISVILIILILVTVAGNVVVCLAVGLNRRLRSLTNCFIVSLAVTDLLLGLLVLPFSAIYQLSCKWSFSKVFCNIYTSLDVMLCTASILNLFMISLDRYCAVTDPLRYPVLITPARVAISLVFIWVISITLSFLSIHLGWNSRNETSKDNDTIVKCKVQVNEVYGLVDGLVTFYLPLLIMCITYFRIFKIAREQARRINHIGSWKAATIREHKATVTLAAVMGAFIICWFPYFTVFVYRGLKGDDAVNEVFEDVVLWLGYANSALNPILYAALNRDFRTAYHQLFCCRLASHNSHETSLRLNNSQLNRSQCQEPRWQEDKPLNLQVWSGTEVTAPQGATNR

As to `CNC(=NC#N)NCCSCc1csc(N=C(N)N)n1` [Tiotidine], the “Potency relative to cimetidine in H2 receptor antagonism” value in assay [1] (both in vitro and in vivo studies) is reported as “at least ten”.

As for `CNC(=C[N+](=O)[O-])NCCSCc1ccc(CN(C)C)o1` [Ranitidine], in assay [2], the “Potency relative to cimetidine in blocking histamine induced gastric acid secretion” value is “about 5 times”. `CN(C)Cc1ccc(CSCCNC2=NS(=O)(=O)CN2)o1` [Example 1, N-[2-[[[5-[(DIMETHYLAMINO)METHYL]-2-FURANYL]METHYL]THIO]ETHYL]-4,5-DIHYDRO- 1,2,4-THIADIAZOL-3-AMINE 1,1-DIOXIDE]: the “H2 antagonism (activity at stated concentrations)” value in assay [3] is recorded as “active”.

Regarding `C#CCNC(=NC#N)NCCSCc1nc[nH]c1C` [Etintidine], the “Potency as H2 -receptor antagonist relative to cimetidine” value in assay [1] is on record as “more potent than cimetidine”.
